One data set deals with MDA-MB-134VI cells. Put plainly: Cell growth-inhibitory effect of combined use (T/C), CellTiter-Glo 2.0. The conditions noted are these: for viability at 0.1 µM: Homo sapiens, MDA-MB-134-VI, 120 h, read-out: T/C (treated/control) cell viability. On the procedure: The cell viability was measured using CellTiter-Glo 2.0 (Promega). […] The number of cells seeded was 500 cells/80 μL per well. […] After drug addition, the cells were further incubated at 37° C. and 5% CO2 for 120 hours. Experiments were carried out in triplicate (3 wells per treatment group). The cell viability was calculated by adding 100 μL of CellTiter-Glo 2.0 reagent per well, incubating at room temperature for 30 minutes, and then measuring the chemiluminescence of each well with a plate reader (EnSpire). The cell viability in the case of drug addition was calculated as a ratio with respect to the control group, which was set to 100%, according to the following formula, and the average value of the data of three wells was used for the analysis.
Cell viability (%)=(chemiluminescence in the case of drug addition)/(chemiluminescence of control group)×100

The subject of a further data set is breast cancer. The conditions noted are these: phase II; subpopulation of FGF pathway-amplified breast cancer patients; cited from earlier work.

Turning to 4-hydroxytamoxifen, the “T/C (treated/control) cell viability” value in the data set with MDA-MB-134VI cells (MDA-MB-134VI, drug alone at 1 μM, 120 hours) is listed as 65%.

Consider `C=CC(=O)N1CC[C@H](n2nc(C#Cc3cc(OC)cc(OC)c3)c3c(N)ncnc32)C1` [compound 1, (S)-1-(3-(4-amino-3-((3,5-dimethoxyphenyl)ethynyl)-1H-pyrazolo[3,4-d]pyrimidin-1-yl)pyrrolidin-1-yl)prop-2-en-1-one], for which, in the data set with MDA-MB-134VI cells, the viability at 0.1 µM came to 35%.

With `C[C@]12CC[C@@H]3c4ccc(O)cc4C[C@@H](CCCCCCCCC[S+]([O-])CCCC(F)(F)C(F)(F)F)[C@H]3[C@@H]1CC[C@@H]2O` (stereo partly shown) [fulvestrant], in the data set on breast cancer, the “median value of the mean progression-free survival (PFS)” value was 5.5 months. In the data set with MDA-MB-134VI cells, the viability at 0.1 µM came out at 75%.

The record behind these values is patent US20220023300A1, “THERAPEUTIC AND PROPHYLACTIC METHOD FOR TUMOR TREATABLE WITH ENDOCRINE THERAPY BY COMBINED USE OF FIBROBLAST GROWTH FACTOR RECEPTOR INHIBITOR WITH ENDOCRINE THERAPY” (TAIHO PHARMACEUTICAL CO., LTD., priority 2018, published 2022).
